Reference: publication PMC5983823, “Screening of Natural Product Derivatives Identifies Two Structurally Related Flavonoids as Potent Quorum Sensing Inhibitors against Gram-Negative Bacteria” (International Journal of Molecular Sciences, 2018)

Experiments:
C. violaceum ATCC 31532 = test: Violacein extraction assay (QS-mediated violacein production); type: cell-based, Chromobacterium violaceum; details: Chromobacterium violaceum; for inhibition at 400 µM: ATCC31532, 24 h, primary screening, 24 h, C. violaceum ATCC 31532, read-out: Inhibition-% of violacein production; for IC50: ATCC31532, C. violaceum ATCC 31532, 15 concentration points, read-out: IC50 of violacein production
Procedure: (§1) The initial screening of compound library was conducted using two strains of C. violaceum as model bacterium, and two assays (violacein extraction and resazurin staining) in parallel as recently optimized in [26]. For the screening assays, overnight cultures of C. violaceum were diluted in LB broth supplemented with yeast extract (LBY) (0.1% w/v, Sigma Aldrich, St. Louis, MO, USA). Culture of C. violaceum CV026 was further supplemented with 0.5 µM N-(β-ketocaproyl)-L-Homoserine lactone (3-O-C6-(L)-HSL, Cayman chemicals, Ann Arbor, MI, USA) to induce the violacein production. Bacteria (10^6 CFU/mL) was exposed to compounds (400 µM) in a total volume of 200 µL in 96-microtiter well plates (Nunc, Roskilde, Denmark), and incubated at 27 °C, with shaking at 200 rpm for 24 h. DMSO was added in untreated control wells and bacteria-free wells with only LBY were included controls. Additionally, autoinducer-free wells containing only bacteria were included in C. violaceum CV026 plates. Plates were prepared in duplicates. Quercetin dihydrate (Carl Roth GmbH, Karlsruhe, Germany) at 400 µM was used as positive control in violacein extraction assay, and azithromycin (Cayman chemicals, Ann Arbor, MI, USA) at 10 µM in viability assay. Both control compounds were prepared in DMSO. DMSO concentration was 2.5% throughout the experiments.
(§2) After incubation period of 24 h, plates were centrifuged (Allegra™ X-12R Benchtop centrifuge, Beckman Coulter Inc., Fullerton, CA, USA) at 3000 rpm for 10 min to precipitate the violacein. Supernatants were discarded from the wells by pipetting, and pellets were re-suspended in 200 μL of 96% ethanol by scraping and mixing followed by centrifugation (3000 rpm, 10 min). Thereafter, 100 μL of supernatants were transferred to sterile 96-microtiter well plates, and violacein was quantified by reading the optical density at 595 nm using Varioskan Flash. Inhibition of violacein production was expressed as inhibition percentages of the untreated biofilms (Equation (1)):Inhibition-% = [(untreated control OD595 − sample OD595)/(untreated control OD595 − media control OD595)] × 100%(1) in which untreated control = C. violaceum + DMSO, media control = LBY, and sample = C. violaceum treated with a compound. Later on, violacein extraction assay was also utilized for the determination of half inhibitory concentrations of the compounds.

C. violaceum CV026 = test: Violacein extraction assay (QS-mediated violacein production), mutant strain with exogenous autoinducer; type: cell-based, Chromobacterium violaceum; details: Chromobacterium violaceum, CV026, 24 h, read-out: Inhibition-% of violacein production
Procedure: as §1, §2

[1] = system: P. aeruginosa and E. coli biofilms; test: Transmitted light microscopy of biofilms; type: cell-based, Pseudomonas aeruginosa, Escherichia coli; details: 100 µM, all the tested strains, crystal violet, 40×
Procedure: For imaging, bacteria were allowed to adhere and form microcolonies on coverslips. Briefly, 5 mL of diluted cultures (10^6 CFU/mL) of P. aeruginosa and E. coli was added to 6-well plates containing glass coverslips (22 mm × 22 mm). The plates were incubated at 37 °C without shaking for 2 h. Thereafter, bacterial suspensions were removed, and the wells were washed once with PBS. Fresh LB with and without the lead compounds at a final concentration of 100 µM was added to the wells, and the plates were incubated at 37 °C for 22 h. At the end of 24 h, coverslips were rinsed three times with MQ-water and air dried followed by staining with 0.23% (v/v) crystal violet solution. Coverslips were allowed to dry and visualized under a Transmitted Light Microscope (EVOS® XL Imaging System, InvitrogenTM, Thermo Fisher Scientific, San Jose, CA, USA) at a magnification of 40×.

P. aeruginosa PAO1 = test: Swarming motility assay; type: cell-based; details: Pseudomonas aeruginosa, PAO1, read-out: Inhibition of swarming motility
Procedure: Assays were performed according to the protocols previously described in [30, 74] with some modifications. The swarming agar was prepared in MQ-water consisting of 0.3% (w/v) agar, 1% (w/v) peptone, 0.5% (w/v) yeast extract and 0.5% (w/v) sodium chloride, and the swimming agar similarly but without yeast extract. Compounds at a final concentration of 400 µM and 100 µM were pre-mixed with 5 mL of agar, and poured over solidified LB agar plates (10 mL/petri dish) as overlays. The plates were allowed to dry at 30 °C for three hours followed by point inoculation with 2 µL of P. aeruginosa PAO1 (~10^8 CFU/mL) and incubation at 37 °C for 18 h. Quercetin was used as a control. Diameters of the swarming and swimming zones were measured after the incubation periods.

[2] = system: P. aeruginosa (ATCC 9027, ATCC 15422 and PA01); test: Viable plate counts (bacterial growth); type: cell-based, Pseudomonas aeruginosa; details: 100 and 400 µM, 24 h
Procedure: (§3) Effects of the leads on bacterial growth were assessed by performing viable plate counts. Compounds at final concentrations of 100 and 400 µM and cultures of P. aeruginosa (ATCC 9027, ATCC 15422 and PA01) and E. coli K-12 (10^6 CFU/mL) were simultaneously added to the 96-microtiter well plates (200 µL per well). Untreated bacteria were included in control wells. The plates were incubated at 37 °C, without shaking for 24 h. At the end of this period, bacterial suspensions were transferred from the wells to Eppendorf tubes, and the tubes were sonicated for 10 min (25 °C, 35 kHz, Sonorex Digitec water bath (Bandelin, Zurich, Switzerland)). Each suspension was serially diluted in LB and plated on LB agar. The number of viable bacteria in each test concentration was counted after overnight incubation at 37 °C. Results were expressed as CFU/mL.

E. coli K-12 = test: Viable plate counts (bacterial growth); type: cell-based, Escherichia coli; details: 100 and 400 µM, 24 h
Procedure: as §3

[3] = system: RhlI/RhlR controlled rhamnolipid biosynthesis in P. aeruginosa; design: method as in ref 73 = [73]; 73. Manner S. Fallarero A. Abo Akademi University and University of Helsinki, Finland Evaluation of the Effects of the Leads in Rhamnolipid Biosynthesis Personal communication 2017; details: personal communication ref 73; cited from earlier work

Compound: CCC(=O)Oc1c(-c2ccccc2Cl)oc2ccccc2c1=O [Compound 2117, 2-(2-chlorophenyl)-4-oxochromen-3-yl propanoate]
- inhibition at 400 µM (C. violaceum ATCC 31532): 102%
- IC50 (C. violaceum ATCC 31532): 9.6 µM
- inhibition at 400 µM (C. violaceum CV026): 102%
- Effect on biofilm structure and formation [1]: alteration of biofilm structure and reduced biofilm formation
- inhibition at 400 µM (P. aeruginosa PAO1): 72.1%
- Bactericidal activity by viable plate counts [2]: Neither of the leads displayed any bactericidal activity
- Bactericidal activity by viable plate counts (E. coli K-12): Neither of the leads displayed any bactericidal activity
- Effect on rhamnolipid biosynthesis [3]: did not affect

Compound: CCCCCCCCCC(=O)Oc1c(-c2ccc(OC)cc2)oc2ccccc2c1=O [Compound 2896, 2-(4-methoxyphenyl)-4-oxochromen-3-yl decanoate]
- inhibition at 400 µM (C. violaceum ATCC 31532): 94.5%
- IC50 (C. violaceum ATCC 31532): 13.9 µM
- inhibition at 400 µM (C. violaceum CV026): 91.2%
- Effect on biofilm structure and formation [1]: alteration of biofilm structure and reduced biofilm formation
- inhibition at 400 µM (P. aeruginosa PAO1): 69.8%
- Bactericidal activity by viable plate counts [2]: Neither of the leads displayed any bactericidal activity
- Bactericidal activity by viable plate counts (E. coli K-12): Neither of the leads displayed any bactericidal activity
- Effect on rhamnolipid biosynthesis [3]: did not affect
